{"source": "patent US20060223831A1", "about": "“Bromide and its crystal” (priority 2003, published 2006)", "key": {"[1]": {"test": "Evaluation of hygroscopic property (storage in humidity-adjusted desiccators)", "type": "physicochemical", "details": "for Hygroscopic property: conclusion from storage at ca. 0 to 93% R.H.; for HPLC purity change / degradation due to storage: 7 days of storage, ca. 0 to 93% R.H.", "protocol": "About 0.5 g of each of the α- form Crystals and β- form Crystals of the bromide obtained in Example 2 was put into a weighing bottle of known mass and, after precisely calculating its mass, preserved under the following storage condition at 25° C. to measure changes in the mass.\nStorage condition: A desiccator adjusted to a humidity of about 0% R.H. (silica gel), 33% R.H. (saturated MgCl2.6H2O aqueous solution), 51% R.H. (saturated Ca(NO3)2 aqueous solution), 75% R.H. (saturated NaCl aqueous solution), or 93% R.H. (saturated KNO3 aqueous solution).\ni) Moisture absorption (dehydrated amount): By taking out each sample after 7 days of the storage, the weight change was precisely measured and recorded to calculate amount of the absorbed moisture.\nii) Appearance verification: Appearance of the powder was verified with the naked eye and using a magnifying lens.\niii) Powder X-ray diffraction measurement: Powder X-ray diffraction patterns of samples before storage and after completion of the storage period were recorded by a powder X-ray diffraction device.\niv) HPLC purity: Detection of degraded products in the samples before storage and after completion of the storage period was carried out using HPLC to measure purity.\n(HPLC conditions) Mobile phase: 0.1% trifluoroacetic acid aqueous solution/acetonitrile=9:2, column: TSKgel ODS 80TsQA, 4.6×150 mm, particle diameter 5 μm (mfd. by Tosoh), flow rate: 1 ml/min, column temperature: 40° C., detection: UV 260 nm"}, "tumor": {"test_system": "tumor", "details": "cf. page 22 of WO 01/60803; cited from earlier work"}, "[2]": {"test": "Water absorption/desorption behavior (moisture equilibrium measuring device SGA-X100)", "type": "physicochemical", "protocol": "Water absorption/desorption behavior of the bromide (β- form Crystal) and the chloride obtained in Reference Example as a comparative compound was measured using a moisture equilibrium measuring device SGA-X100 (VTI) under conditions of temperature: 25° C., measuring range: relative humidity of from 5 to 95%, and measuring interval: 5%."}, "[3]": {"test": "Stability test (40° C., 75% R.H., 3 months)", "type": "physicochemical", "details": "for Storage stability: 3 months at 40° C. under a relative humidity of 75%", "protocol": "Samples were stored under shade for 3 months in a constant temperature constant moisture vessel of 40° C. and 75% R.H. The purity of each sample before storage and after storage was measured using HPLC, and change of crystal form was measured by powder X-ray diffraction. In addition, as a comparative example, crystals of the chloride were stored for 3 months under the same conditions, and amount of an impurity a (a compound in which the imidazolium ring was ring-opened) was measured. [table]"}, "[4]": {"details": "cf. page 22 of WO 01/60803; cited from earlier work"}, "[5]": {"details": "after storage, 3 months, 40° C., 75% R.H., under shade"}, "[6]": {"details": "93% R.H. storage, 25° C., 7 days"}, "[7]": {"details": "other conditions (ca. 0 to 75% R.H.), 25° C., 7 days"}, "[8]": {"details": "all conditions (ca. 0 to 93% R.H.), 25° C., 7 days"}}, "data": [{"smiles": "COCCn1c2c([n+](Cc3cnccn3)c1C)C(=O)c1ccccc1C2=O.[Br-]", "note": "[bromide, 1-(2-methoxyethyl)-2-methyl-4,9-dioxo-3-(pyrazin-2-ylmethyl)-4,9-dihydro-1H-naphtho[2,3-d]imidazol-3-ium bromide]", "values": [{"measurement": "Hygroscopic property", "setting": "[1]; 25° C.", "value": "no hygroscopic property"}]}, {"smiles": "COCCn1c2c([n+](Cc3cnccn3)c1C)C(=O)c1ccccc1C2=O", "note": "[chloride, 1-(2-methoxyethyl)-2-methyl-4,9-dioxo-3-(pyrazin-2-ylmethyl)-4,9-dihydro-1H-naphtho[2,3-d]imidazol-3-ium chloride]", "values": [{"measurement": "in vivo tumor growth inhibitory activity", "setting": "tumor", "value": "good"}, {"measurement": "Weight gain on forming monohydrate", "setting": "[2]; 25° C., 65% R.H. to 80% R.H.", "value": 4.3, "unit": "%"}, {"measurement": "Relative humidity causing deliquescence", "setting": "[2]; 25° C., absorption", "value": "≥ 85", "unit": "% R.H."}, {"measurement": "Relative humidity below which hydrate returned to anhydride", "setting": "[2]; 25° C., at the time of drying, hydration state stable up to 25% R.H.", "value": "< 25", "unit": "% R.H."}, {"measurement": "Heating temperature returning hydrate to anhydride", "setting": "[2]; slight heating", "value": "≥ 25", "unit": "°C"}, {"measurement": "Storage stability", "setting": "[3]", "value": "low"}, {"measurement": "Impurity a (%) (imidazolium ring-opened compound)", "setting": "[3]; [5]", "value": 2.45, "unit": "%"}, {"measurement": "Impurity a (%) (imidazolium ring-opened compound)", "setting": "[3]; before storage", "value": 0.64, "unit": "%"}, {"measurement": "toxicity", "setting": "[4]", "value": "low"}]}, {"smiles": "COCCn1c2c([n+](Cc3cnccn3)c1C)C(=O)c1ccccc1C2=O.[Br-]", "note": "[α-form Crystal, 1-(2-methoxyethyl)-2-methyl-4,9-dioxo-3-(pyrazin-2-ylmethyl)-4,9-dihydro-1H-naphtho[2,3-d]imidazol-3-ium bromide]", "values": [{"measurement": "Storage stability", "setting": "[3]", "value": "degradation due to the storage was not observed"}, {"measurement": "Storage stability", "setting": "[3]; listed as α- form Crystals", "value": "stable"}, {"measurement": "HPLC purity (%)", "setting": "[3]; [5]", "value": 99.92, "unit": "%"}, {"measurement": "Powder X-ray diffraction pattern", "setting": "[3]; [5]", "value": "β-form"}, {"measurement": "HPLC purity (%)", "setting": "[3]; before storage", "value": 99.91, "unit": "%"}, {"measurement": "Powder X-ray diffraction pattern", "setting": "[3]; before storage", "value": "α-form"}, {"measurement": "Weight change (%)", "setting": "[1]; 33% R.H., 25° C., 7 days, listed as α-form Crystals", "value": "−0.02", "unit": "%"}, {"measurement": "HPLC purity (%)", "setting": "[1]; 33% R.H., 25° C., after 7 days of storage, listed as α-form Crystals", "value": 99.89, "unit": "%"}, {"measurement": "Weight change (%)", "setting": "[1]; 51% R.H., 25° C., 7 days, listed as α-form Crystals", "value": "−0.04", "unit": "%"}, {"measurement": "HPLC purity (%)", "setting": "[1]; 51% R.H., 25° C., after 7 days of storage, listed as α-form Crystals", "value": 99.89, "unit": "%"}, {"measurement": "Weight change (%)", "setting": "[1]; 75% R.H., 25° C., 7 days, listed as α-form Crystals", "value": 0.13, "unit": "%"}, {"measurement": "HPLC purity (%)", "setting": "[1]; 75% R.H., 25° C., after 7 days of storage, listed as α-form Crystals", "value": 99.88, "unit": "%"}, {"measurement": "Appearance verification", "setting": "[1]; [6]", "value": "change from reddish yellow to yellow"}, {"measurement": "Powder X-ray diffraction pattern after storage", "setting": "[1]; [6]", "value": "transitioned to β- form Crystals"}, {"measurement": "Weight loss", "setting": "[1]; [6]", "value": "About 1%"}, {"measurement": "Weight change (%)", "setting": "[1]; 93% R.H., 25° C., 7 days, listed as α-form Crystals", "value": "−0.94", "unit": "%"}, {"measurement": "HPLC purity (%)", "setting": "[1]; 93% R.H., 25° C., after 7 days of storage, listed as α-form Crystals", "value": 99.89, "unit": "%"}, {"measurement": "HPLC purity change / degradation due to storage", "setting": "[1]; 25° C.", "value": "the purity was not decreased"}, {"measurement": "HPLC purity (%)", "setting": "[1]; before storage, listed as α-form Crystals", "value": 99.93, "unit": "%"}, {"measurement": "Weight change (%)", "setting": "[1]; ca. 0% R.H. (silica gel), 25° C., 7 days, listed as α-form Crystals", "value": "−0.10", "unit": "%"}, {"measurement": "HPLC purity (%)", "setting": "[1]; ca. 0% R.H., 25° C., after 7 days of storage, listed as α-form Crystals", "value": 99.72, "unit": "%"}, {"measurement": "Hygroscopic property", "setting": "[1]; 25° C.", "value": "no hygroscopic property"}, {"measurement": "Appearance verification", "setting": "[1]; [7]", "value": "No changes were found"}, {"measurement": "Powder X-ray diffraction pattern after storage", "setting": "[1]; [7]", "value": "No changes were found"}]}, {"smiles": "COCCn1c2c([n+](Cc3cnccn3)c1C)C(=O)c1ccccc1C2=O.[Br-]", "note": "[β-form Crystal, 1-(2-methoxyethyl)-2-methyl-4,9-dioxo-3-(pyrazin-2-ylmethyl)-4,9-dihydro-1H-naphtho[2,3-d]imidazol-3-ium bromide]", "values": [{"measurement": "Hygroscopic property", "setting": "[2]; 25° C., humidity range of from 5 to 95%", "value": "not found"}, {"measurement": "Storage stability", "setting": "[3]", "value": "very stable physically and chemically"}, {"measurement": "Storage stability", "setting": "[3]; listed as β- form Crystals", "value": "stable"}, {"measurement": "HPLC purity (%)", "setting": "[3]; [5]", "value": 99.71, "unit": "%"}, {"measurement": "Powder X-ray diffraction pattern", "setting": "[3]; [5]", "value": "β-form"}, {"measurement": "HPLC purity (%)", "setting": "[3]; before storage", "value": 99.71, "unit": "%"}, {"measurement": "Powder X-ray diffraction pattern", "setting": "[3]; before storage", "value": "β-form"}, {"measurement": "Weight change (%)", "setting": "[1]; 33% R.H., 25° C., 7 days, listed as β-form Crystals", "value": 0.02, "unit": "%"}, {"measurement": "HPLC purity (%)", "setting": "[1]; 33% R.H., 25° C., after 7 days of storage, listed as β-form Crystals", "value": 99.73, "unit": "%"}, {"measurement": "Weight change (%)", "setting": "[1]; 51% R.H., 25° C., 7 days, listed as β-form Crystals", "value": 0.04, "unit": "%"}, {"measurement": "HPLC purity (%)", "setting": "[1]; 51% R.H., 25° C., after 7 days of storage, listed as β-form Crystals", "value": 99.72, "unit": "%"}, {"measurement": "Weight change (%)", "setting": "[1]; 75% R.H., 25° C., 7 days, listed as β-form Crystals", "value": 0.06, "unit": "%"}, {"measurement": "HPLC purity (%)", "setting": "[1]; 75% R.H., 25° C., after 7 days of storage, listed as β-form Crystals", "value": 99.71, "unit": "%"}, {"measurement": "Weight change (%)", "setting": "[1]; 93% R.H., 25° C., 7 days, listed as β-form Crystals", "value": 0.08, "unit": "%"}, {"measurement": "HPLC purity (%)", "setting": "[1]; 93% R.H., 25° C., after 7 days of storage, listed as β-form Crystals", "value": 99.71, "unit": "%"}, {"measurement": "HPLC purity change / degradation due to storage", "setting": "[1]; 25° C.", "value": "the purity was not decreased"}, {"measurement": "Appearance verification", "setting": "[1]; [8]", "value": "No changes were found"}, {"measurement": "Powder X-ray diffraction pattern after storage", "setting": "[1]; [8]", "value": "did not change"}, {"measurement": "Weight change", "setting": "[1]; all of the moisture adjustment conditions, 25° C., 7 days", "value": "Significant weight change was not found"}, {"measurement": "HPLC purity (%)", "setting": "[1]; before storage, listed as β-form Crystals", "value": 99.72, "unit": "%"}, {"measurement": "Weight change (%)", "setting": "[1]; ca. 0% R.H. (silica gel), 25° C., 7 days, listed as β-form Crystals", "value": 0.01, "unit": "%"}, {"measurement": "HPLC purity (%)", "setting": "[1]; ca. 0% R.H., 25° C., after 7 days of storage, listed as β-form Crystals", "value": 99.73, "unit": "%"}, {"measurement": "Hygroscopic property", "setting": "[1]; 25° C.", "value": "no hygroscopic property"}]}]}
